The record followed here is patent US8993839B2, “Plant-based production of heterologous proteins” (The Regents of the University of California, priority 2010, dated 2015).

For the assay, the target named is Acidothermus cellulolyticus β-1,4-endoglucanase E1 (P. pastoris-produced) (Acidothermus cellulolyticus, UniProt P54583). Put plainly: Michaelis-Menten kinetics of purified E1 (produced in P. pastoris, IMAC purified): cleavage of MUC to cellobiose and MU at various temperatures. The format is biochemical. The following applies: substrate MUC, E1 concentration by Bradford assay. Here is the method:
Endoglucanase activity assay: Endoglucanase (E1) cleaves methylumbelliferyl-tagged cellobiose (MUC), releasing methylumbelliferone (MU). The MU fluorescence can be measured to determine E1 activity. The relative fluorescence readings of 0.024 to 3.0 μM MU solutions were used to create a linear standard curve. Samples containing E1 were diluted so the concentration of MU released fell within the standard curve. A 60 μl aliquot of diluted supernatant was added to 540 μl of acetate buffer (200 mM acetate, pH 5.5, 100 mM NaCl) and 200 μl of substrate (500 μM MUC). 200 μl of reaction was sampled at time zero and after 30 minutes and added to 800 μl of stop buffer (150 mM glycine, pH 10). The change in fluorescence over time was measured with a VersaFluor fluorometer (Bio-Rad). Fluorescence was converted to an activity, and the specific activity reported in the literature was used to approximate the concentration of E1 in Pichia supernatants. The Michaelis-Menten kinetic parameters of purified endoglucanase were determined. The E1 was produced in P. pastoris and purified by IMAC (immobilized metal affinity chromatography). E1 cleaves the substrate (MUC) into cellobiose and a fluorophore (MU), the concentration of which can be monitored over time. When run at 65° C. and […] substrate, this is the reaction used for the activity assay for E1 in plant extracts and yeast cultures. In this set of experiments, the substrate concentration was varied to determine the kinetic parameters at different temperatures. The rate for a reaction displaying Michaelis-Menten kinetics is shown in Equation 1. The rate depends on the catalysis rate (kcat), the total enzyme concentration (ET), the adsorption/desorption rates which are lumped into the Michaelis-Menten constant (KM), and the substrate concentration (S). At high substrate concentrations (S>>KM), the rate approaches a maximum, and […] is often written as Vmax. The parameters Vmax and KM can be determined experimentally by varying the substrate concentration (S) and measuring the reaction rate (V) at each concentration. Equation 1 can be rearranged as a linear equation (Equation 2). When the reciprocal of the reaction rate (V) is plotted against the reciprocal of the substrate concentration (S), a line fitting the data points can be used to determine KM/Vmax (the slope) and 1/Vmax (y-intercept). A Bradford assay was used to determine the E1 protein concentration in each sample, and this value of ET was used to calculate the kcat values in Table 1. Table 1 depicts a summary of Michaelis-Menten parameters for E1-catalyzed degradation of MUC to MU at various temperatures.

Chain of Acidothermus cellulolyticus β-1,4-endoglucanase E1 (P. pastoris-produced) (P54583 other isoform, or with tags, fused parts or gaps): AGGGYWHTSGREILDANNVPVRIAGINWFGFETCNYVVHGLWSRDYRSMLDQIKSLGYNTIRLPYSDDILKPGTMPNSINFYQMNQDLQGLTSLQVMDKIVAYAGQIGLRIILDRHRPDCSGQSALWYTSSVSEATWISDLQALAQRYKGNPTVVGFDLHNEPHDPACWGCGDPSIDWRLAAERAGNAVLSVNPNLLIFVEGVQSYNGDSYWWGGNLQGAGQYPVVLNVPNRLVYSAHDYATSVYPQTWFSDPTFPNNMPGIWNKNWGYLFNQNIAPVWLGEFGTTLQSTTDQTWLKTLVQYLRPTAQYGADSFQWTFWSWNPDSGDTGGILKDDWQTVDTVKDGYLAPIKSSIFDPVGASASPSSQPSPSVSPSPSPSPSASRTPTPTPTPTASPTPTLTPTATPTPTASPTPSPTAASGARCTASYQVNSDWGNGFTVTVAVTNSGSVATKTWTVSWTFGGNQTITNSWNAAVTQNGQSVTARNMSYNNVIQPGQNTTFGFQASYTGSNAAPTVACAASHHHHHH

As for `Cc1cc(=O)oc2cc(O[C@@H]3O[C@H](CO)[C@@H](O[C@@H]4O[C@H](CO)[C@@H](O)[C@H](O)[C@H]4O)[C@H](O)[C@H]3O)ccc12` [MUC, methylumbelliferyl-tagged cellobiose], the kcat is 106 ± 5 L/min (50 °C); 309 ± 13 L/min (65 °C); 667 ± 92 L/min (80 °C); 292 ± 284 L/min (93 °C, uncertainty approaches 100%, not used further).
